Measurements published in US20090018134A1, “Compounds - 945” (AstraZeneca AB, priority 2007, published 2009).

Each molecule was assayed against T1, mTOR (Homo sapiens, UniProt P42345) (assay: In Vitro mTOR Kinase Assay (Echo), Test (a)(ii)). Conditions: table of enzyme assay Test (a)(ii); read-out: Test (a)(ii) IC50.
T1 construct: FLAG; made in house
Format: biochemical
Outline: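 Enzyme: HEK293-expressed, FLAG-purified mTOR C-terminal fragment (aa 1362-2549). Rxn 2 h RT with biotinylated peptide, stopped with EDTA 50 mM/BSA/Tris pH 7.4. Detection: T389 phospho-antibody AlphaScreen, 680 nm excitation. IC50.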

T1 sequence (P42345 1362-2549): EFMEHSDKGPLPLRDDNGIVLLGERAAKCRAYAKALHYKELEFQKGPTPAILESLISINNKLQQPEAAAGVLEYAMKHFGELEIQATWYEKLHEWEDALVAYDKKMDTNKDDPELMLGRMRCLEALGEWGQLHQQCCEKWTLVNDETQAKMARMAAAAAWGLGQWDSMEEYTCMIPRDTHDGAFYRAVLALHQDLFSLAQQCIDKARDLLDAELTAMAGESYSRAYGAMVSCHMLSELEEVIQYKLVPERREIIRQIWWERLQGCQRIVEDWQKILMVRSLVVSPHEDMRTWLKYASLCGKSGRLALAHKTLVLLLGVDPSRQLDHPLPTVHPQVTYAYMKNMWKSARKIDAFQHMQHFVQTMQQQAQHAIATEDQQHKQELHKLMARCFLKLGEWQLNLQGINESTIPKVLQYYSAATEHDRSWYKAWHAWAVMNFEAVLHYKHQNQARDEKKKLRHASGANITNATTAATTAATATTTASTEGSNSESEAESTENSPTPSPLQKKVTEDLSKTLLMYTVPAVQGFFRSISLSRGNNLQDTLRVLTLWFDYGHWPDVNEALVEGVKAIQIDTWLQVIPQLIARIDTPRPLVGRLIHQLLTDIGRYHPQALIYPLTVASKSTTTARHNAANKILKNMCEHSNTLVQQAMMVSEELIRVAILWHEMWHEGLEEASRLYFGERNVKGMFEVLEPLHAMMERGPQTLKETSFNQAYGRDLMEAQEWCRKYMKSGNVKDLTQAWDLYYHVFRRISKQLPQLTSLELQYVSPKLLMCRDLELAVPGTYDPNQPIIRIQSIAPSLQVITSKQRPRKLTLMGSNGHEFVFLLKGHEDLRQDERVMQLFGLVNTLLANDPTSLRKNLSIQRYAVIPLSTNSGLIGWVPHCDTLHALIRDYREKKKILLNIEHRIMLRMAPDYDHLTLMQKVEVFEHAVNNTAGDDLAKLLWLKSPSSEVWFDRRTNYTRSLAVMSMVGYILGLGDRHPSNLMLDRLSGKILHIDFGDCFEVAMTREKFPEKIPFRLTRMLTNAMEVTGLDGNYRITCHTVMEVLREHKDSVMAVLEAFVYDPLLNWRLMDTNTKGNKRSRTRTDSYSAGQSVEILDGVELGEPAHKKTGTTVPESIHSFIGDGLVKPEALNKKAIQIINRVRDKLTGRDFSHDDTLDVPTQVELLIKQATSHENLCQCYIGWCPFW

Compound | IC50 [nM]
Cc1csc(S(=O)(=O)C2(c3cc(N4CCOC[C@@H]4C)nc(-c4ccc(NC(=O)NC5(CO)CC5)cc4)n3)CC2)n1 [Example 36q, 3-[1-(hydroxymethyl)cyclopropyl]-1-[4-[4-[(3S)-3-methylmorpholin-4-yl]-6-[1-[(4-methyl-1,3-thiazol-2-yl)sulfonyl]cyclopropyl]pyrimidin-2-yl]phenyl]urea] | 88.9
CS(=O)(=O)C1(c2cc(N3CCOCC3)nc(-c3ccc(NC(=O)NCCC#N)cc3)n2)CC1 [Example 36r, 3-(2-cyanoethyl)-1-[4-[4-(1-methylsulfonylcyclopropyl)-6-morpholin-4-ylpyrimidin-2-yl]phenyl]urea] | 7.33
CS(=O)(=O)C1(c2cc(N3CCOCC3)nc(-c3ccc(NC(=O)Nc4ncns4)cc3)n2)CC1 [Example 36s, 1-[4-[4-(1-methylsulfonylcyclopropyl)-6-morpholin-4-ylpyrimidin-2-yl]phenyl]-3-(1,2,4-thiadiazol-5-yl)urea] | 4.75
CS(=O)(=O)C1(c2cc(N3CCOCC3)nc(-c3ccc(NC(=O)NCc4ncc[nH]4)cc3)n2)CC1 [Example 36t, 3-(1H-imidazol-2-ylmethyl)-1-[4-[4-(1-methylsulfonylcyclopropyl)-6-morpholin-4-ylpyrimidin-2-yl]phenyl]urea] | 194
CCS(=O)(=O)C1(c2cc(N3CCOC[C@@H]3C)nc(-c3ccc(NC(=O)NCCC#N)cc3)n2)CC1 [Example 36u, 3-(2-cyanoethyl)-1-[4-[4-(1-ethylsulfonylcyclopropyl)-6-[(3S)-3-methylmorpholin-4-yl]pyrimidin-2-yl]phenyl]urea] | 9.22
CCS(=O)(=O)C1(c2cc(N3CCOC[C@@H]3C)nc(-c3ccc(NC(=O)NC4(CO)CC4)cc3)n2)CC1 [Example 36v, 1-[4-[4-(1-ethylsulfonylcyclopropyl)-6-[(3S)-3-methylmorpholin-4-yl]pyrimidin-2-yl]phenyl]-3-[1-(hydroymethyl)cyclopropyl]urea] | 467
CCS(=O)(=O)C1(c2cc(N3CCOC[C@@H]3C)nc(-c3ccc(NC(=O)NCc4ncc[nH]4)cc3)n2)CC1 [Example 36w, 1-[4-[4-(1-ethylsulfonylcyclopropyl)-6-[(3S)-3-methylmorpholin-4-yl]pyrimidin-2-yl]phenyl]-3-(1H-imidazol-2-ylmethyl)urea] | 110
C[C@H]1COCCN1c1cc(C2(S(=O)(=O)c3ccc(F)cc3)CC2)nc(-c2ccc(NC(=O)NC3(CO)CC3)cc2)n1 [Example 36x, 1-[4-[4-[1-(4-fluorophenyl)sulfonylcyclopropyl]-6-[(3S)-3-methylmorpholin-4-yl]pyrimidin-2-yl]phenyl]-3-[1-(hydroxymethyl)cyclopropyl]urea] | 182
C[C@H]1COCCN1c1cc(C2(S(=O)(=O)c3ccc(F)cc3)CC2)nc(-c2ccc(NC(=O)NCCC#N)cc2)n1 [Example 36y, 3-(2-cyanoethyl)-1-[4-[4-[1-(4-fluorophenyl)sulfonylcyclopropyl]-6-[(3S)-3-methylmorpholin-4-yl]pyrimidin-2-yl]phenyl]urea] | 1.31
C[C@H]1COCCN1c1cc(C2(S(=O)(=O)c3ccc(F)cc3)CC2)nc(-c2ccc(NC(=O)Nc3ncns3)cc2)n1 [Example 36z, 1-[4-[4-[1-(4-fluorophenyl)sulfonylcyclopropyl]-6-[(3S)-3-methylmorpholin-4-yl]pyrimidin-2-yl]phenyl]-3-(1,2,4-thiadiazol-5-yl)urea] | 2.08
CNC(=S)Nc1ccc(-c2nc(N3CCOC[C@@H]3C)cc(C3(S(=O)(=O)C4CC4)CC3)n2)cc1 [Example 37a, 1-[4-[4-(1-cyclopropylsulfonylcyclopropyl)-6-[(3S)-3-methylmorpholin-4-yl]pyrimidin-2-yl]phenyl]-3-methylthiourea] | 26
C[C@H]1COCCN1c1cc(C2(S(=O)(=O)c3ccccc3)CC2)nc(-c2ccc(NC(=S)NCCO)cc2)n1 [Example 37aa, 1-[4-[4-[1-(benzenesulfonyl)cyclopropyl]-6-[(3S)-3-methylmorpholin-4-yl]pyrimidin-2-yl]phenyl]-3-(2-hydroxyethyl)thiourea] | 5.67
C[C@H]1COCCN1c1cc(C2(S(=O)(=O)c3ccncc3)CC2)nc(-c2ccc(NC(=S)NCCO)cc2)n1 [Example 37ad, 3-(2-hydroxyethyl)-1-[4-[4-[(3S)-3-methylmorpholin-4-yl]-6-(1-pyridin-4-ylsulfonylcyclopropyl)pyrimidin-2-yl]phenyl]thiourea] | 2.63
C[C@H]1COCCN1c1cc(C2(S(=O)(=O)c3ccncc3)CC2)nc(-c2ccc(NC(=S)NC3CC3)cc2)n1 [Example 37ae, 3-cyclopropyl-1-[4-[4-[(3S)-3-methylmorpholin-4-yl]-6-(1-pyridin-4-ylsulfonylcyclopropyl)pyrimidin-2-yl]phenyl]thiourea] | 9.52
CNC(=S)Nc1ccc(-c2nc(N3CCOC[C@@H]3C)cc(C3(S(=O)(=O)c4ccncc4)CC3)n2)cc1 [Example 37af, 3-methyl-1-[4-[4-[(3S)-3-methylmorpholin-4-yl]-6-(1-pyridin-4-ylsulfonylcyclopropyl)pyrimidin-2-yl]phenyl]thiourea] | 23.3
C[C@H]1COCCN1c1cc(C2(S(=O)(=O)c3ccccc3)CC2)nc(-c2ccc(NC(=S)NC(C)(C)CO)cc2)n1 [Example 37ag, 1-[4-[4-[1-(benzenesulfonyl)cyclopropyl]-6-[(3S)-3-methylmorpholin-4-yl]pyrimidin-2-yl]phenyl]-3-(1-hydroxy-2-methylpropan-2-yl)thiourea] | 13.4
C[C@H]1COCCN1c1cc(C2(S(=O)(=O)C3CC3)CC2)nc(-c2ccc(NC(=S)NC3CC3)cc2)n1 [Example 37b, 3-cyclopropyl-1-[4-[4-(1-cyclopropylsulfonylcyclopropyl)-6-[(3S)-3-methylmorpholin-4-yl]pyrimidin-2-yl]phenyl]thiourea] | 12.4
C[C@H]1COCCN1c1cc(C2(S(=O)(=O)CCCO)CC2)nc(-c2ccc(NC(=S)NC3CCC3)cc2)n1 [Example 37d, 3-cyclobutyl-1-[4-[4-[1-(3-hydroxypropylsulfonyl)cyclopro-pyl]-6-[(3S)-3-methylmorpholin-4-yl]pyrimidin-2-yl]phenyl]thiourea] | 4.39
C[C@H]1COCCN1c1cc(C2(S(=O)(=O)CCCO)CC2)nc(-c2ccc(NC(=S)NCCC#N)cc2)n1 [Example 37e, 3-(2-cyanoethyl)-1-[4-[4-[1-(3-hydroxypropylsulfonyl)cyclopro-pyl]-6-[(3S)-3-methylmorpholin-4-yl]pyrimidin-2-yl]phenyl]thiourea] | 4.9
CNC(=S)Nc1ccc(-c2nc(N3CCOC[C@@H]3C)cc(C3(S(=O)(=O)CCCO)CC3)n2)cc1 [Example 37g, 1-[4-[4-[1-(3-hydroxypropylsulfonyl)cyclopro-pyl]-6-[(3S)-3-methylmorpholin-4-yl]pyrimidin-2-yl]phenyl]-3-methylthiourea] | 17.9
C[C@H]1COCCN1c1cc(C2(S(=O)(=O)CCCO)CC2)nc(-c2ccc(NC(=S)Nc3cnn(C)c3)cc2)n1 [Example 37j, 1-[4-[4-[1-(3-hydroxypropylsulfonyl)cyclopro-pyl]-6-[(3S)-3-methylmorpholin-4-yl]pyrimidin-2-yl]phenyl]-3-(1-methylpyrazol-4-yl)thiourea] | 30.9
CCCNC(=S)Nc1ccc(-c2nc(N3CCOC[C@@H]3C)cc(C3(S(=O)(=O)CCCO)CC3)n2)cc1 [Example 37l, 3-[4-[4-[1-(3-hydroxypropylsulfonyl)cyclopro-pyl]-6-[(3S)-3-methylmorpholin-4-yl]pyrimidin-2-yl]phenyl]-1-propylthiourea] | 32
C[C@H]1COCCN1c1cc(C2(S(C)(=O)=O)CC2)nc(-c2ccc(NC(=S)NCCCO)cc2)n1 [Example 37m, 3-(3-hydroxypropyl)-1-[4-[4-[(3S)-3-methylmorpholin-4-yl]-6-(1-methylsulfonylcyclopropyl)pyri-midin-2-yl]phenyl]thiourea] | 50.6
CCCNC(=S)Nc1ccc(-c2nc(N3CCOC[C@@H]3C)cc(C3(S(C)(=O)=O)CC3)n2)cc1 [Example 37n, 1-[4-[4-[(3S)-3-methylmorpholin-4-yl]-6-(1-methylsulfonylcyclopropyl)pyri-midin-2-yl]phenyl]-3-propylthiourea] | 39.3
C[C@H]1COCCN1c1cc(C2(S(C)(=O)=O)CC2)nc(-c2ccc(NC(=S)Nc3cnn(C)c3)cc2)n1 [Example 37o, 1-[4-[4-[(3S)-3-methylmorpholin-4-yl]-6-(1-methylsulfonylcyclopropyl)pyri-midin-2-yl]phenyl]-3-(1-methylpyrazol-4-yl)thiourea] | 33
CNC(=S)Nc1ccc(-c2nc(N3CCOC[C@@H]3C)cc(C3(S(=O)(=O)c4nc(C)cs4)CC3)n2)cc1 [Example 37p, 3-methyl-1-[4-[4-[(3S)-3-methylmorpholin-4-yl]-6-[1-[(4-methyl-1,3-thiazol-2-yl)sulfonyl]cyclopropyl]pyri-midin-2-yl]phenyl]thiourea] | 5.34
Cc1csc(S(=O)(=O)C2(c3cc(N4CCOC[C@@H]4C)nc(-c4ccc(NC(=S)NC5CC5)cc4)n3)CC2)n1 [Example 37q, 3-cyclopropyl-1-[4-[4-[(3S)-3-methylmorpholin-4-yl]-6-[1-[(4-methyl-1,3-thiazol-2-yl)sulfonyl]cyclopropyl]pyri-midin-2-yl]phenyl]thiourea] | 2.94
Cc1csc(S(=O)(=O)C2(c3cc(N4CCOC[C@@H]4C)nc(-c4ccc(NC(=S)NCCO)cc4)n3)CC2)n1 [Example 37r, 3-(2-hydroxyethyl)-1-[4-[4-[(3S)-3-methylmorpholin-4-yl]-6-[1-[(4-methyl-1,3-thiazol-2-yl)sulfonyl]cyclopropyl]pyri-midin-2-yl]phenyl]thiourea] | 1.62
CNC(=S)Nc1ccc(-c2nc(N3CCOC[C@@H]3C)cc(C3(S(=O)(=O)c4ccc(F)cc4)CC3)n2)cc1 [Example 37s, 1-[4-[4-[1-(4-fluorophenyl)sulfonylcyclopropyl]-6-[(3S)-3-methylmorpholin-4-yl]pyrimidin-2-yl]phenyl]-3-methylthiourea] | 7.56
